We go through 17 molecules from patent publication US6777425B2, “Isoquinoline compounds having antiinfective activity” (Genesoft Pharmaceuticals, Inc., priority 2001, dated 2004).

One assay concerns B. cereus ATCC 11778. Kind of assay: NCCLS broth microdilution MIC, B. cereus. It is filed as cell-based, Bacillus cereus. The conditions noted are these: organism A = B. cereus ATCC 11778. The text has this:
(§1) Compounds according to this invention were screened for their in vitro activities against selected species of bacteria and fungi. […]

The test system of the next assay is C. albicans ATCC 38247. Kind of assay: Antifungal MIC, C. albicans. The class given is cell-based, Candida albicans. The conditions noted are these: organism B = C. albicans ATCC 38247.
Description: as §1

The next assay relates to E. faecalis ATCC 29212. Kind of assay: NCCLS broth microdilution MIC, E. faecalis. It is filed as cell-based. The note with it: organism C = E. faecalis ATCC 29212.
Description: as §1

The subject of the next assay is S. pneumoniae ATCC 49619. Description: NCCLS broth microdilution MIC, S. pneumoniae ATCC 49619. The class given is cell-based, Streptococcus pneumoniae. The conditions noted are these: organism H = S. pneumoniae ATCC 49619.
Description: as §1

The test system of another assay is S. aureus ATCC 13709. Description: NCCLS broth microdilution MIC, S. aureus (MSSA). It is filed as cell-based, Staphylococcus aureus. The note with it: organism E = S. aureus ATCC 13709 (MSSA).
Description: as §1
(In general: Broth dilution looks for growth in wells or tubes with falling amounts of substance.)

The subject of a further assay is S. aureus ATCC 27660. Kind of assay: NCCLS broth microdilution MIC, S. aureus (MRSA). The class given is cell-based, Staphylococcus aureus. The note with it: organism F = S. aureus ATCC 27660 (MRSA).
Description: as §1

Setting [1] is: Staphylococcus aureus, read-out: Minimum Inhibitory Concentration (MIC).

On to `Cn1cc(NC(=O)c2cc(NC(=O)c3cc(NC(=O)c4nccc5ccccc45)cn3C)cn2C)cc1C(=O)NCCN1CCOCC1` [Ib-1], for which the “Minimum Inhibitory Concentration (MIC)” value was “+++ (+++ = MIC ≦ 4)” in the assay with B. cereus ATCC 11778, more than 32 µg/mL with C. albicans ATCC 38247, “+++ (+++ = MIC ≦ 4)” in the assay with E. faecalis ATCC 29212 and “+++ (+++ = MIC ≦ 4)” in the assay with S. pneumoniae ATCC 49619.
As for `CCN(CC)CCNC(=O)c1cc(NC(=O)c2cc(NC(=O)c3cc(NC(=O)c4cc5ccccc5cn4)cn3C)cn2C)sn1` [Ib-53], the “Minimum Inhibitory Concentration (MIC)” value is “+++ (+++ = MIC ≦ 4)” in the assay on B. cereus ATCC 11778; more than 32 µg/mL with C. albicans ATCC 38247; “+++ (+++ = MIC ≦ 4)” in the assay on E. faecalis ATCC 29212; “+++ (+++ = MIC ≦ 4)” in the assay on S. aureus ATCC 13709; “+++ (+++ = MIC ≦ 4)” in the assay with S. aureus ATCC 27660; “+++ (+++ = MIC ≦ 4)” with S. pneumoniae ATCC 49619.
On to `Cn1cc(NC(=O)c2cc(NC(=O)c3cc(NC(=O)c4cc5ccccc5cn4)cn3C)cn2CCN2CCOCC2)cc1C(=O)NCCN1CCOCC1` [Ib-57], for which the “Minimum Inhibitory Concentration (MIC)” value in the assay with B. cereus ATCC 11778 is “+++ (+++ = MIC ≦ 4)”; in the assay on C. albicans ATCC 38247, more than 32 µg/mL; in the assay on E. faecalis ATCC 29212, “+++ (+++ = MIC ≦ 4)”; with S. aureus ATCC 13709 it was “+++ (+++ = MIC ≦ 4)”; in the assay with S. aureus ATCC 27660, “+++ (+++ = MIC ≦ 4)”; in the assay with S. pneumoniae ATCC 49619 it was “+++ (+++ = MIC ≦ 4)”.
On to `Cn1cc(NC(=O)c2cc3ccccc3cn2)cc1C(=O)Nc1cc(C(=O)Nc2cn(C)c(C(=O)NCCN3CCOCC3)n2)n(C)c1` [Ib-58], for which the “Minimum Inhibitory Concentration (MIC)” value with B. cereus ATCC 11778 was more than 32 µg/mL; in the assay with C. albicans ATCC 38247, more than 32 µg/mL; in the assay on E. faecalis ATCC 29212 it was “+++ (+++ = MIC ≦ 4)”; in the assay on S. aureus ATCC 13709, “++ (++ = 4 < MIC < 12)”; in the assay on S. aureus ATCC 27660, more than 32 µg/mL; in the assay with S. pneumoniae ATCC 49619 it was “+++ (+++ = MIC ≦ 4)”.
Regarding `Cn1cc(NC(=O)c2cc(NC(=O)c3cc4ccccc4cn3)no2)cc1C(=O)OCCN1CCOCC1` [Ib-61], the “Minimum Inhibitory Concentration (MIC)” value in the assay with B. cereus ATCC 11778 was more than 32 µg/mL; in the assay with C. albicans ATCC 38247, more than 32 µg/mL; with E. faecalis ATCC 29212, “+++ (+++ = MIC ≦ 4)”; with S. aureus ATCC 13709 it was “+ (+ = 12 ≦ MIC ≦ 32)”; with S. aureus ATCC 27660 it was “+++ (+++ = MIC ≦ 4)”; with S. pneumoniae ATCC 49619 it was “+++ (+++ = MIC ≦ 4)”.
With `Cn1cc(NC(=O)c2cc(NC(=O)c3cc(NC(=O)c4cc5ccccc5cn4)c[nH]3)cn2C)cc1C(=O)NCCN1CCCCC1` [Ib-62], the “Minimum Inhibitory Concentration (MIC)” value in the assay on B. cereus ATCC 11778 was “+++ (+++ = MIC ≦ 4)”; with C. albicans ATCC 38247, more than 32 µg/mL; with E. faecalis ATCC 29212, “+++ (+++ = MIC ≦ 4)”; in the assay on S. aureus ATCC 13709, “++ (++ = 4 < MIC < 12)”; with S. aureus ATCC 27660, “+++ (+++ = MIC ≦ 4)”; with S. pneumoniae ATCC 49619, “+++ (+++ = MIC ≦ 4)”.
Regarding `Cc1cc(NC(=O)c2cc(NC(=O)c3cc(NC(=O)c4cc5ccccc5cn4)cn3C)cn2CCN2CCOCC2)sn1` [Ib-63], the “Minimum Inhibitory Concentration (MIC)” value is “+++ (+++ = MIC ≦ 4)” in the assay on B. cereus ATCC 11778; more than 32 µg/mL in the assay on C. albicans ATCC 38247; “+++ (+++ = MIC ≦ 4)” with E. faecalis ATCC 29212; “+++ (+++ = MIC ≦ 4)” with S. aureus ATCC 13709; “+++ (+++ = MIC ≦ 4)” in the assay with S. aureus ATCC 27660; “+++ (+++ = MIC ≦ 4)” in the assay with S. pneumoniae ATCC 49619.
As for `Cc1cc(NC(=O)c2cc(NC(=O)c3cc(NC(=O)c4cc5ccccc5cn4)cn3C)cn2CCN2CCCC2)sn1` [Ib-65], the “Minimum Inhibitory Concentration (MIC)” value was “+++ (+++ = MIC ≦ 4)” in the assay on B. cereus ATCC 11778; more than 32 µg/mL in the assay with C. albicans ATCC 38247; “+++ (+++ = MIC ≦ 4)” in the assay with E. faecalis ATCC 29212; “+++ (+++ = MIC ≦ 4)” with S. aureus ATCC 13709; “+++ (+++ = MIC ≦ 4)” in the assay with S. aureus ATCC 27660; “+++ (+++ = MIC ≦ 4)” with S. pneumoniae ATCC 49619.
Regarding `Cn1cc(NC(=O)c2cc(NC(=O)c3cc(NC(=O)c4cc5ccccc5cn4)c[nH]3)cn2C)cc1C(=O)NCCc1ccccn1` [Ib-69], the “Minimum Inhibitory Concentration (MIC)” value was “+++ (+++ = MIC ≦ 4)” with B. cereus ATCC 11778; more than 32 µg/mL with C. albicans ATCC 38247; “+++ (+++ = MIC ≦ 4)” in the assay with E. faecalis ATCC 29212; “+++ (+++ = MIC ≦ 4)” in the assay with S. aureus ATCC 13709; “+++ (+++ = MIC ≦ 4)” in the assay with S. aureus ATCC 27660; “+++ (+++ = MIC ≦ 4)” with S. pneumoniae ATCC 49619.
Consider `Cn1cc(NC(=O)c2cc(NC(=O)c3cc(NC(=O)c4cc5ccccc5cn4)c[nH]3)cn2C)cc1C(=O)NCCN1CCC(F)CC1` [Ib-71], for which the “Minimum Inhibitory Concentration (MIC)” value with B. cereus ATCC 11778 was “+++ (+++ = MIC ≦ 4)”; with C. albicans ATCC 38247 it was more than 32 µg/mL; in the assay on E. faecalis ATCC 29212 it was “+++ (+++ = MIC ≦ 4)”; in the assay on S. aureus ATCC 13709 it was “+++ (+++ = MIC ≦ 4)”; in the assay on S. aureus ATCC 27660, “+++ (+++ = MIC ≦ 4)”; with S. pneumoniae ATCC 49619 it was “+++ (+++ = MIC ≦ 4)”.
Turning to `COCn1cc(NC(=O)c2cc3ccccc3cn2)cc1C(=O)Nc1cc(C(=O)Nc2cc(C(=O)NCCN3CCOCC3)n(C)c2)n(C)c1` [Ib-72], the “Minimum Inhibitory Concentration (MIC)” value was “+++ (+++ = MIC ≦ 4)” in the assay with B. cereus ATCC 11778; more than 32 µg/mL in the assay with C. albicans ATCC 38247; “+++ (+++ = MIC ≦ 4)” in the assay on E. faecalis ATCC 29212; “+++ (+++ = MIC ≦ 4)” in the assay on S. aureus ATCC 13709; “+++ (+++ = MIC ≦ 4)” in the assay on S. aureus ATCC 27660; “+++ (+++ = MIC ≦ 4)” with S. pneumoniae ATCC 49619.
Take `CN(C)CCSCCn1cc(NC(=O)c2cc3ccccc3cn2)cc1C(=O)Nc1cc(C(=O)Nc2ccc3cnccc3c2)n(C)c1` [Ib-73]: the “Minimum Inhibitory Concentration (MIC)” value in the assay on B. cereus ATCC 11778, with C. albicans ATCC 38247, in the assay on E. faecalis ATCC 29212, with S. aureus ATCC 13709, in the assay with S. aureus ATCC 27660 and in the assay with S. pneumoniae ATCC 49619 was “+++ (+++ = MIC ≦ 4)” each time.
`CC(=O)[O-].Cc1cc(NC(=O)c2cc(NC(=O)c3cc(NC(=O)c4cc5ccccc5cn4)cn3C)cn2CCC[N+](C)(C)C)sn1` [Ib-74]: the “Minimum Inhibitory Concentration (MIC)” value with B. cereus ATCC 11778, with C. albicans ATCC 38247, in the assay with E. faecalis ATCC 29212, with S. aureus ATCC 13709, in the assay on S. aureus ATCC 27660 and in the assay on S. pneumoniae ATCC 49619 was more than 32 µg/mL throughout.
`Cn1cc(NC(=O)c2cc(NC(=O)c3cc(NC(=O)c4cc5ccccc5cn4)c[nH]3)cn2C)cc1C(=O)NCCN1CCSCC1` [Ib-75]: the MIC was less than 4 µg/mL in the assay with B. cereus ATCC 11778 (Bacillus cereus, ATCC11778, read-out: Minimum Inhibitory Concentration (MIC)); more than 32 µg/mL in the assay on C. albicans ATCC 38247 (Candida albicans, ATCC38247, read-out: Minimum Inhibitory Concentration (MIC)); less than 4 µg/mL in the assay with E. faecalis ATCC 29212 (Enterococcus faecalis, ATCC29212, read-out: Minimum Inhibitory Concentration (MIC)); less than 4 µg/mL in the assay on S. aureus ATCC 13709 (setting [1]); less than 4 µg/mL in the assay on S. aureus ATCC 27660 (setting [1]); less than 4 µg/mL with S. pneumoniae ATCC 49619 (Streptococcus pneumoniae, ATCC49619, read-out: Minimum Inhibitory Concentration (MIC)).
As to `Cn1cc(NC(=O)c2cc(NC(=O)c3cc(NC(=O)c4cc5ccccc5cn4)c[nH]3)cn2C)cc1C(=O)NCCc1ccncc1` [Ib-76], the “Minimum Inhibitory Concentration (MIC)” value with B. cereus ATCC 11778 was “+++ (+++ = MIC ≦ 4)”; with C. albicans ATCC 38247 it was more than 32 µg/mL; in the assay with E. faecalis ATCC 29212 it was “+++ (+++ = MIC ≦ 4)”; in the assay with S. aureus ATCC 13709, “+++ (+++ = MIC ≦ 4)”; in the assay with S. aureus ATCC 27660, “+++ (+++ = MIC ≦ 4)”; in the assay with S. pneumoniae ATCC 49619, “+++ (+++ = MIC ≦ 4)”.
On to `Cc1cc(NC(=O)c2cc(NC(=O)c3nc(NC(=O)c4cc5ccccc5cn4)cn3C)cn2CCN2CCOCC2)sn1` [Ib-77], for which the “Minimum Inhibitory Concentration (MIC)” value in the assay with B. cereus ATCC 11778 is “+++ (+++ = MIC ≦ 4)”; in the assay on C. albicans ATCC 38247, more than 32 µg/mL; with E. faecalis ATCC 29212, “+++ (+++ = MIC ≦ 4)”; in the assay on S. aureus ATCC 13709, “+++ (+++ = MIC ≦ 4)”; in the assay on S. aureus ATCC 27660 it was “+++ (+++ = MIC ≦ 4)”; in the assay on S. pneumoniae ATCC 49619, “+++ (+++ = MIC ≦ 4)”.
For `CN(C)CCSCCn1cc(NC(=O)c2cc3ccccc3cn2)cc1C(=O)Nc1cc(C(=O)Nc2cc(C(=O)NCCN3CCOCC3)n(C)c2)n(C)c1` [Ib-79], the “Minimum Inhibitory Concentration (MIC)” value was “+++ (+++ = MIC ≦ 4)” in the assay with B. cereus ATCC 11778; more than 32 µg/mL in the assay on C. albicans ATCC 38247; “+++ (+++ = MIC ≦ 4)” in the assay on E. faecalis ATCC 29212; “+++ (+++ = MIC ≦ 4)” with S. aureus ATCC 13709; “+++ (+++ = MIC ≦ 4)” in the assay on S. aureus ATCC 27660; “+++ (+++ = MIC ≦ 4)” in the assay on S. pneumoniae ATCC 49619.
